# Reference: patent US5847092A (Zambon Group S.p.A., priority 1994, dated 1998)
# Where two headings read alike, the source gives them in different places.
# Legend:
# [1] = literature; cited from earlier work
# [2] = test system: Gram-positive and Gram-negative bacteria; conditions: literature; cited from earlier work
# [3] = literature; cited from earlier work; remark: listed apart in the source
# [4] = test system: Streptococcus pneumoniae BS 4; test: In vitro antibacterial activity, MIC, broth microdilution; assay type: cell-based; conditions: Streptococcus pneumoniae, BS4; S. pneumoniae BS 4; MHB + 5% horse serum; 37° C., 18 hours; read-out: minimum inhibiting concentration MIC
# Procedure, shortened: (§1)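 Twofold serial broth microdilution in Mueller Hinton Broth, supplemented with 5% horse serum for S. pneumoniae and S. pyogenes. Plates incubated 37 °C for 18 hours; MIC (μg/ml) taken as lowest concentration inhibiting bacterial growth.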
# [5] = test system: Enterococcus faecalis ATCC 29212; test: as above; assay type: cell-based; conditions: Enterococcus faecalis, ATCC29212; E. faecalis ATCC 29212; MHB; 37° C., 18 hours; read-out: minimum inhibiting concentration MIC
# Procedure, shortened: as §1
# [6] = test system: Klebsiella pneumoniae ZC 2; test: as above; assay type: cell-based; conditions: Klebsiella pneumoniae, ZC2; K. pneumoniae ZC 2; MHB; 37° C., 18 hours; read-out: minimum inhibiting concentration MIC
# Procedure, shortened: as §1
# [7] = test system: Streptococcus pneumoniae BS 3; test: as above; assay type: cell-based; conditions: Streptococcus pneumoniae, BS3; S. pneumoniae BS 3; MHB + 5% horse serum; 37° C., 18 hours; read-out: minimum inhibiting concentration MIC
# Procedure, shortened: as §1
# [8] = test system: Escherichia coli ATCC 25922; test: as above; assay type: cell-based; conditions: Escherichia coli, ATCC25922; E. coli ATCC 25922; MHB; 37° C., 18 hours; read-out: minimum inhibiting concentration MIC
# Procedure, shortened: as §1
# [9] = test system: Staphylococcus aureus PV 14; test: as above; assay type: cell-based; conditions: Staphylococcus aureus, PV14; S. aureus PV 14; MHB; 37° C., 18 hours; read-out: minimum inhibiting concentration MIC
# Procedure, shortened: as §1
# [10] = test system: Streptococcus pyogenes A 26; test: as above; assay type: cell-based; conditions: Streptococcus pyogenes, A26; S. pyogenes A 26; MHB + 5% horse serum; 37° C., 18 hours; read-out: minimum inhibiting concentration MIC
# Procedure, shortened: as §1
# [11] = test system: Streptococcus pyogenes C 203; test: as above; assay type: cell-based; conditions: Streptococcus pyogenes, C203; S. pyogenes C 203; MHB + 5% horse serum; 37° C., 18 hours; read-out: minimum inhibiting concentration MIC
# Procedure, shortened: as §1
# [12] = test system: Streptococcus pyogenes C 203; test: In vivo antibacterial activity, experimental pulmonary infection in mouse; conditions: for ED50: Streptococcus pyogenes, C203, ip, 240 h, intraperitoneal single dose, read-out: average protecting dose PD50
# Method: The in vivo antibacterial activity of the compounds of formula (I), expressed as average protecting dose PD50 (mg/Kg), was evaluated by means of experimental pulmonary infection induced in mouse by Streptococcus pyogenes (example 23).
# b) In vivo antibacterial activity
# The therapeutical effectiveness, expressed as average protecting dose (PD50), of the considered compounds of formula (I) was evaluated by experimental pulmonary infection induced in mouse by Streptococcus pyogenesC 203.
# Charles River albin mice (strain CD 1), of body weight comprised between 23-35 g, stabulated in groups of 6 for cage and normo-feeded with standard diet and water ad libitum were used. A suspension of S. pyogenes C 203 (corresponding about to 10^8 UFC) in tryptose broth (0.05 ml) was intranasally administered to each mouse anesthesized with a mixture of ethyl ether and chloroform.
# The compounds under examination were intraperitoneally administered as a single dose, in 0.2% Tween suspension, 24 hours before or 1 hour after the infection.
# Mice mortality observation was prolonged up to 10 days from the infection.
# PD50 calculation, expressed as (mg/Kg), was carried out through the analysis of probit.
# In vivo antibacterial activity, expressed as average protecting dose PD50 (mg/Kg), 24 hours before and 1 hour after the experimental pulmonary infection induced in mouse by Streptococcus pyogenes C 203, of the compounds 4, 10, 16-19, 21, 23, 26-27, 29-30, 33-35 and 38 and of the reference compounds Roxithromycin and Clarithromycin.
# eukaryotic parasites = conditions: literature; cited from earlier work
SMILES,pharmacokinetic properties / bioavailability (in words) [1],spectrum of activity in vitro (in words) [2],stability to the acids (in words) [3],MIC [4] [µg/mL],MIC [5] [µg/mL],MIC [6] [µg/mL],MIC [7] [µg/mL],MIC [8] [µg/mL],MIC [9] [µg/mL],MIC [10] [µg/mL],MIC [11] [µg/mL],ED50 ([12]; 1 hour after infection) [mg/kg],ED50 ([12]; 24 hours before infection) [mg/kg],"in vivo activity, pulmonary infection (in words) ([12]; administered 24 hours before the infection)",activity against eukaryotic parasites (in words) (eukaryotic parasites)
CC[C@H]1OC(=O)[C@H](C)[C@@H](O[C@H]2C[C@@](C)(OC)[C@@H](O)[C@H](C)O2)[C@H](C)[C@@H](O[C@@H]2O[C@H](C)C[C@H](N(C)C)[C@H]2O)[C@](C)(O)C[C@@H](C)C(=NOCCN(C)C)[C@H](C)[C@@H](O)[C@]1(C)O [Erythromycin A 9-[0-[(2-dimethylamino)ethyl]oxime]],better pharmacokinetic properties,comparable to that of Erythromycin A,superior stability to the acids,,,,,,,,,,,,
CC[C@H]1OC(=O)[C@H](C)[C@@H](O[C@H]2C[C@@](C)(OC)[C@@H](O)[C@H](C)O2)[C@H](C)[C@@H](O[C@@H]2O[C@H](C)C[C@H](N(C)C)[C@H]2O)[C@](C)(O)C[C@@H](C)C(=NOCCN(CC)CC)[C@H](C)[C@@H](O)[C@]1(C)O [Erythromycin A 9-[0-[(2-diethylamino)ethyl]oxime]],better pharmacokinetic properties,comparable to that of Erythromycin A,superior stability to the acids,,,,,,,,,,,,
"CC[C@H]1OC(=O)[C@H](C)[C@@H](O[C@H]2C[C@@](C)(OC)[C@@H](O)[C@H](C)O2)[C@H](C)[C@@H](O[C@@H]2O[C@H](C)C[C@H](N(C)C)[C@H]2O)[C@](C)(O)C[C@@H](C)/C(=N\OCOCCOC)[C@H](C)[C@@H](O)[C@]1(C)O [Roxithromycin, Erythromycin A 9-[0-[(2-methoxyethoxy)methyl]oxime], reference compound]",better pharmacokinetic properties,comparable to that of Erythromycin A,superior stability to the acids,0.0625,4,256,0.0312,28,1,0.0625,0.0625,0.9,> 25,inactive,
CC[C@H]1OC(=O)[C@H](C)[C@@H](O[C@H]2C[C@@](C)(OC)[C@@H](O)[C@H](C)O2)[C@H](C)[C@@H](O[C@@H]2O[C@H](C)C[C@H](N(C)C)[C@H]2O)[C@](C)(O)C[C@@H](C)C(=O)[C@H](C)[C@@H](O)[C@]1(C)O [Erythromycin A],,antibacterial activity mainly against Gram-positive microorganisms,,,,,,,,,,,,,active against eukaryotic parasites
